Patent US20080287425A1, “Method for Controlling Chinch Bugs” (FMC CORPORATION, priority 2005, published 2008)

Test system: adult southern chinch bugs
Assay: LC-50 of bifenthrin on chinch bug populations, dipped St. Augustine grass stolons in Petri dishes
Type: in vivo, Blissus insularis
Conditions: about 24 hours at about 28° C
Source text: Developing Chinch Bug Resistance to Bifenthrin (Synthetic Pyrethroid) Serial dilutions of bifenthrin were made from Talstar Flowable 7.9% AI (FMC, Philadelphia, Pa.). Freshly harvested St. Augustine grass stolons (about 10 cm long) were dipped into the dilutions and allowed to air dry. The stolons were placed individually into Petri dishes (15 cm diameter) containing moist filter paper to maintain high humidity. Twenty adult southern chinch bugs were placed into each Petri dish and held for about 24 hours at about 28° C. Sample sizes of adults tested ranged from 200 (20 each at 10 dose levels) to 480 (20 each at 24 dose levels) for each location to estimate LC-50 for that location. Different numbers of adults tested per location depended on availability of adults plus variability noted in testing. Since the objective of this study was to estimate LC-50 values, doses expected to give 25 to 75% mortality for best LC-50 were used. Mortality was defined as virtually no movement by an adult during a 5 minute observation period through a 5× large magnifying lens. The no movement criterion was used to avoid ambiguities of comatose, unable to stand, moribund, etc.

Cc1c(COC(=O)[C@@H]2[C@H](/C=C(\Cl)C(F)(F)F)C2(C)C)cccc1-c1ccccc1 (racemic) [bifenthrin]
LC-50 (chinch bugs from Belle Glade, control problem in the field: No): 2.6 ppm | LC-50 (chinch bugs from Clermont, control problem in the field: Yes): 78.7 ppm | LC-50 (chinch bugs from Daytona Beach, control problem in the field: Yes): 243.3 ppm | LC-50 (chinch bugs from Fort Pierce, control problem in the field: No): 2.8 ppm | LC-50 (chinch bugs from Gainesville, control problem in the field: No): 10.6 ppm | LC-50 (chinch bugs from Kendall Lakes, control problem in the field: No): 9.3 ppm | LC-50 (chinch bugs from Key Largo, control problem in the field: Yes): 148.2 ppm | LC-50 (chinch bugs from Lithia, control problem in the field: No): 5.4 ppm | LC-50 (chinch bugs from Orlando, control problem in the field: No): 2.3 ppm | LC-50 (chinch bugs from Ormond Beach, control problem in the field: Yes): 698.8 ppm | LC-50 (chinch bugs from Palm Coast, control problem in the field: Yes): 1,693 ppm | LC-50 (chinch bugs from Palmetto, control problem in the field: Yes): 493.6 ppm | LC-50 (chinch bugs from Royal Palm Beach, control problem in the field: No): 7.3 ppm | LC-50 (chinch bugs from Sarasota, control problem in the field: Yes): 89.2 ppm | LC-50 (chinch bugs from Spring Hill, control problem in the field: Yes): 159.3 ppm | LC-50 (chinch bugs from Tamarac, control problem in the field: No): 9.7 ppm
